The values that follow come from PMC8022201, “Non‐canonical metabolic pathways in the malaria parasite detected by isotope‐tracing metabolomics” (Molecular Systems Biology, 2021).

This experiment addresses T1, HAD4 (PfHAD4) (Plasmodium falciparum, UniProt Q8III4).
T1 construct: gene PF3D7_1118400
Put plainly: biochemical.

T1 sequence (Q8III4 1-306): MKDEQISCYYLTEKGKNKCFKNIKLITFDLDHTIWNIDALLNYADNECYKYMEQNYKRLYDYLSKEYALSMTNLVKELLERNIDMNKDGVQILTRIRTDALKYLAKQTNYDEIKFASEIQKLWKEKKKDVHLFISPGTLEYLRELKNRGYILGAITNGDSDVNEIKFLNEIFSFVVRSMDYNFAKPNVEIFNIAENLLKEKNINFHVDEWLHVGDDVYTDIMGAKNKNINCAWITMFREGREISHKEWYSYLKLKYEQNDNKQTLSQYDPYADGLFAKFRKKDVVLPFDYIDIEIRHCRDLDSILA

As to `O=P(O)(O)O` [inorganic phosphate], half-maximal inhibition (IC50) required 2100 ± 210 µM.

In general, IC50 refers to the concentration that gives 50% inhibition. Low readings indicate greater potency, high ones weaker potency.
